According to the CheMixHub drug solubility set:

Assay: xn = mol fraction of the nth substance listed, in the solute-free solvent

CCc1cccc2c3c([nH]c12)C(CC)(CC(=O)O)OCC3 (configuration not stated) + COC(C)=O + CCCCCC
solubility (g/100 g solution)
Settings | 278.15 K | 283.15 K | 288.15 K | 293.15 K | 298.15 K | 303.15 K | 308.15 K | 313.15 K | 318.15 K | 323.15 K
x2 = 0.2255 | 1.11 | 1.18 | 1.26 | 1.35 | 1.42 | 1.5 | 1.61 | 1.69 | 1.76 | 1.86
x2 = 0.4369 | 3.55 | 3.98 | 4.43 | 4.96 | 5.39 | 5.87 | 6.35 | 6.88 | 7.34 | 7.96
x2 = 0.6357 | 4.26 | 5.33 | 6.41 | 7.66 | 8.86 | 9.93 | 11.4 | 12.9 | 14.1 | 15.7
x2 = 0.8229 | 10.8 | 12.1 | 13.6 | 15.1 | 16.7 | 18.3 | 20.2 | 22.4 | 24.4 | 26

O=C(O)c1ccc(-n2nc(-c3ccccc3O)nc2-c2ccccc2O)cc1 + CCO + CO
298.15 K
Settings | solubility (g/100 g solution)
x2 = 0.07174 | 12.7
x2 = 0.1481 | 12.9
x2 = 0.2296 | 12.8
x2 = 0.3168 | 12.7
x2 = 0.4102 | 12.5
x2 = 0.5106 | 12.2
x2 = 0.6188 | 11.9
x2 = 0.7356 | 11.5
x2 = 0.8623 | 11

O=C(O)c1ccc(-n2nc(-c3ccccc3O)nc2-c2ccccc2O)cc1 + CC(O)CO + CCO
298.15 K
Settings | solubility (g/100 g solution)
x2 = 0.06303 | 11.6
x2 = 0.1315 | 12.2
x2 = 0.206 | 12.8
x2 = 0.2875 | 13.4
x2 = 0.3771 | 13.7
x2 = 0.4759 | 13.4
x2 = 0.5855 | 12.4
x2 = 0.7077 | 11.2
x2 = 0.8449 | 10.1

N#CC(c1ccc(Cl)cc1)c1c(Cl)cc(-n2ncc(=O)[nH]c2=O)cc1Cl (configuration not stated) + CC(C)=O + CCO
solubility (g/100 g solution)
Settings | 283.15 K | 288.15 K | 293.15 K | 298.15 K | 303.15 K | 308.15 K | 313.15 K | 318.15 K | 323.15 K
x2 = 0.1655 | 2.81 | 3.32 | 3.87 | 4.51 | 5.25 | 6.03 | 6.91 | 7.89 | 8.92
x2 = 0.3459 | 4.12 | 4.81 | 5.56 | 6.42 | 7.41 | 8.46 | 9.6 | 10.9 | 12.2
x2 = 0.5434 | 5.39 | 6.26 | 7.2 | 8.24 | 9.47 | 10.8 | 12.2 | 13.7 | 15.2
x2 = 0.7604 | 6.63 | 7.67 | 8.77 | 10 | 11.4 | 13 | 14.6 | 16.3 | 18.1

O=CC(O)C(O)C(O)CO (configuration not stated) + CCO + CCCCCC
solubility (g/100 g solution)
Settings | x2 = 0.1 | x2 = 0.2 | x2 = 0.3 | x2 = 0.4 | x2 = 0.5 | x2 = 0.6 | x2 = 0.7 | x2 = 0.8 | x2 = 0.9
283.15 K | 0.0708 | 0.0912 | 0.139 | 0.18 | 0.281 | 0.514 | 0.692 | 1.16 | 1.73
293.15 K | 0.0738 | 0.111 | 0.171 | 0.268 | 0.425 | 0.715 | 1.07 | 1.56 | 2.52
303.15 K | 0.0959 | 0.119 | 0.186 | 0.375 | 0.676 | 1.1 | 1.5 | 2.39 | 4.09
313.15 K | 0.117 | 0.179 | 0.269 | 0.599 | 0.925 | 1.8 | 2.44 | 4.02 | 6.9
323.15 K | 0.147 | 0.234 | 0.317 | 0.98 | 1.54 | 2.72 | 3.96 | 6.76 | 12.3

O=C(O)c1ccc(-n2nc(-c3ccccc3O)nc2-c2ccccc2O)cc1 + CC(O)CO + CC#N
298.15 K
Settings | solubility (g/100 g solution)
x2 = 0.05655 | 2.43
x2 = 0.1188 | 4.43
x2 = 0.1878 | 6.62
x2 = 0.2645 | 8.48
x2 = 0.3504 | 9.81
x2 = 0.4473 | 10.7
x2 = 0.5573 | 11.3
x2 = 0.6833 | 11.4
x2 = 0.8292 | 11

Cl.c1ccc2c(CC3=NCCN3)cccc2c1 + COCCO + CC(C)O
solubility (g/100 g solution)
Settings | 278.15 K | 283.15 K | 288.15 K | 293.15 K | 298.15 K | 303.15 K | 308.15 K | 313.15 K | 318.15 K | 323.15 K
x2 = 0.08067 | 0.345 | 0.391 | 0.44 | 0.493 | 0.56 | 0.628 | 0.702 | 0.778 | 0.867 | 0.926
x2 = 0.1649 | 0.526 | 0.602 | 0.687 | 0.775 | 0.873 | 0.969 | 1.09 | 1.19 | 1.32 | 1.42
x2 = 0.2529 | 0.638 | 0.792 | 0.944 | 1.03 | 1.25 | 1.45 | 1.56 | 1.82 | 1.98 | 2.32
x2 = 0.3449 | 0.753 | 0.926 | 1.09 | 1.32 | 1.53 | 1.8 | 2.05 | 2.36 | 2.58 | 2.87
x2 = 0.4412 | 1.03 | 1.18 | 1.29 | 1.51 | 1.68 | 1.89 | 2.09 | 2.36 | 2.6 | 2.87
x2 = 0.5422 | 1.45 | 1.58 | 1.73 | 1.92 | 2.17 | 2.43 | 2.69 | 2.97 | 3.24 | 3.61
x2 = 0.6482 | 1.84 | 2.01 | 2.28 | 2.46 | 2.77 | 2.98 | 3.37 | 3.59 | 3.82 | 4.19
x2 = 0.7595 | 2.35 | 2.52 | 2.78 | 3.06 | 3.34 | 3.67 | 4.04 | 4.45 | 4.93 | 5.36
x2 = 0.8767 | 2.49 | 2.71 | 3.03 | 3.29 | 3.7 | 3.95 | 4.34 | 4.64 | 4.96 | 5.33

Cc1cc(Cl)cc(C(=O)O)c1N + CC(C)=O + CCCCCC
solubility (g/100 g solution)
Settings | 278.15 K | 283.15 K | 288.15 K | 293.15 K | 298.15 K | 303.15 K | 308.15 K | 313.15 K | 318.15 K | 323.15 K
x2 = 0.2386 | 0.677 | 0.753 | 0.884 | 1.03 | 1.18 | 1.35 | 1.58 | 1.88 | 2.21 | 2.59
x2 = 0.4322 | 1.29 | 1.42 | 1.66 | 1.92 | 2.18 | 2.5 | 2.92 | 3.45 | 4.05 | 4.74
x2 = 0.5923 | 1.87 | 2.05 | 2.39 | 2.75 | 3.12 | 3.56 | 4.16 | 4.9 | 5.75 | 6.71
x2 = 0.7271 | 2.4 | 2.64 | 3.07 | 3.53 | 3.99 | 4.55 | 5.31 | 6.25 | 7.32 | 8.52
x2 = 0.842 | 2.91 | 3.2 | 3.71 | 4.26 | 4.81 | 5.48 | 6.38 | 7.5 | 8.77 | 10.2
x2 = 0.9411 | 3.39 | 3.72 | 4.31 | 4.95 | 5.58 | 6.35 | 7.38 | 8.66 | 10.1 | 11.7

Cc1nc(C)c(C)nc1C + CCCCO + CC#N
solubility (g/100 g solution)
Settings | 273.15 K | 278.15 K | 283.15 K | 288.15 K | 293.15 K | 298.15 K | 303.15 K | 308.15 K | 313.15 K
x2 = 0.1 | 14 | 16.4 | 19.4 | 21.5 | 27.1 | 29.5 | 36.1 | 39.3 | 44.2
x2 = 0.2 | 18.3 | 21 | 23.4 | 27.1 | 31.6 | 34.6 | 39.8 | 43.8 | 48.2
x2 = 0.3 | 21.2 | 24.6 | 26.9 | 30.9 | 35.3 | 38.2 | 42.8 | 46.6 | 50.5
x2 = 0.4 | 22.8 | 25.9 | 28.7 | 33 | 37.8 | 40.3 | 44.8 | 48.5 | 52.8
x2 = 0.5 | 23.7 | 26.6 | 30.4 | 34 | 39.2 | 41.5 | 45.7 | 49.3 | 53.6
x2 = 0.6 | 24.5 | 26.1 | 30.6 | 34.2 | 39.4 | 41.6 | 45.7 | 50 | 53.9
x2 = 0.7 | 24.3 | 25.7 | 30.1 | 33.6 | 39.3 | 41.5 | 44.8 | 50.1 | 53.6
x2 = 0.8 | 23.5 | 24.9 | 29.4 | 33 | 38.4 | 41 | 43.8 | 49.6 | 53
x2 = 0.9 | 21.8 | 23.6 | 27.9 | 30.6 | 36.3 | 39.2 | 41.8 | 47.9 | 51.3

Cl.NC(C=O)C(O)C(O)C(O)CO (configuration not stated) + O + CCO
solubility (g/100 g solution)
Settings | 283.15 K | 288.15 K | 293.15 K | 298.15 K | 303.15 K | 308.15 K | 313.15 K | 318.15 K | 323.15 K
x2 = 0.4 | 0.614 | 0.658 | 0.736 | 0.832 | 0.899 | 0.944 | 1.08 | 1.18 | 1.27
x2 = 0.5 | 1.17 | 1.37 | 1.55 | 1.68 | 1.79 | 2.1 | 2.32 | 2.52 | 2.83
x2 = 0.6 | 2.21 | 2.56 | 2.9 | 3.34 | 3.6 | 3.91 | 4.59 | 4.86 | 5.43
x2 = 0.7 | 3.86 | 4.61 | 5.18 | 5.66 | 6.46 | 7.67 | 8.39 | 9.2 | 10.5
x2 = 0.8 | 6.88 | 7.72 | 8.59 | 9.69 | 10.7 | 11.8 | 13.1 | 14.6 | 16.1
x2 = 0.9 | 12.3 | 13.1 | 14.5 | 16.1 | 17.4 | 19 | 20.6 | 22.3 | 23.9

O=C(O)c1ccc(-n2nc(-c3ccccc3O)nc2-c2ccccc2O)cc1 + CO + CC#N
298.15 K
Settings | solubility (g/100 g solution)
x2 = 0.1246 | 4.33
x2 = 0.2426 | 7.73
x2 = 0.3544 | 11.2
x2 = 0.4606 | 14.2
x2 = 0.5616 | 16.4
x2 = 0.6577 | 17.6
x2 = 0.7493 | 18
x2 = 0.8367 | 17.2
x2 = 0.9202 | 15.3

O=c1cc(-c2ccccc2)oc2cc(O)c(O)c(O)c12 + CCO + O
solubility (g/100 g solution)
Settings | 283.15 K | 288.15 K | 293.15 K | 298.15 K | 303.15 K | 308.15 K | 313.15 K | 318.15 K | 323.15 K | 328.15 K
x2 = 0.2 | 0.0427 | 0.0499 | 0.0671 | 0.0809 | 0.0932 | 0.105 | 0.128 | 0.157 | 0.179 | 0.228
x2 = 0.4 | 0.194 | 0.221 | 0.262 | 0.314 | 0.372 | 0.444 | 0.554 | 0.643 | 0.73 | 0.887
x2 = 0.6 | 0.413 | 0.455 | 0.52 | 0.587 | 0.663 | 0.795 | 0.919 | 1.07 | 1.23 | 1.46
x2 = 0.8 | 0.474 | 0.525 | 0.574 | 0.634 | 0.728 | 0.831 | 0.939 | 1.08 | 1.27 | 1.51
